Test results published in US10851083B2, “Benzoimidazoles as prolyl hydroxylase inhibitors” (Janssen Pharmaceutica NV, priority 2008, dated 2020).

Tests used:
[1] = biological target: human PHD2181-417 (Homo sapiens (Human), UniProt Q9GZT9); experiment: PHD2 enzyme activity assay ([14C]-succinic acid production); format: biochemical; conditions: PHD2181-417 polypeptide, HIF-1α peptide 10 μM, [5-14C]-2-oxoglutaric acid; 30 min pre-incubation; tested 10 μM to 3 nM;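 note: reaction ran 10 min with compound in Tris pH 7.5 buffer with catalase, DTT and ascorbate, labelled succinate freed of leftover 2-oxoglutarate by DNP precipitation, then beta counted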
[2] = tested on: Hep-3B cells; experiment: Cellular assay: EPO secretion in Hep-3B cells; format: cell-based, human; parameters: EPO secretion, % of control compound: dose or concentration left out as unconfirmed; conditions: Homo sapiens, Hep3B, 24 h, EPO secretion as percentage of control compound 7-[(4-Chloro-phenyl)-(5-methyl-isoxazol-3-ylamino)-methyl]-quinolin-8-ol, read-out: Cellular % EPO Stimulation

Chain of human PHD2181-417 (Q9GZT9 181-417): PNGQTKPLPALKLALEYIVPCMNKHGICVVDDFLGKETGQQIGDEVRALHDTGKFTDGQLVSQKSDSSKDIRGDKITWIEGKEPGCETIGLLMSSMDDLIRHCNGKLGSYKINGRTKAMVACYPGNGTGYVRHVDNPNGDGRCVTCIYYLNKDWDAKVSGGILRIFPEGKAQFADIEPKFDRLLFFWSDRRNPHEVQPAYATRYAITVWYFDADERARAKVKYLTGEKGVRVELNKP

Structure (SMILES) | Enzyme pIC50 [1] | EPO secretion, % of control compound [2] [%]
O=C(O)c1cnn(-c2nc3cc(Oc4ccc(Cl)cc4)c(C(F)(F)F)cc3[nH]2)c1 [Example 55, 1-[5-(4-Chloro-phenoxy)-6-trifluoromethyl-1H-benzoimidazol-2-yl]-1H-pyrazole-4-carboxylic Acid] | 7.5 | 44.2
O=C(O)c1cnn(-c2nc3cc(Oc4ccccc4)c(C(F)(F)F)cc3[nH]2)c1 [Example 56, 1-(5-Phenoxy-6-trifluoromethyl-1H-benzoimidazol-2-yl)-1H-pyrazole-4-carboxylic Acid] | 7.2 | 143
O=C(O)c1cnn(-c2nc3cc(Oc4ccccc4)c(Cl)cc3[nH]2)c1 [Example 57, 1-(6-Chloro-5-phenoxy-1H-benzoimidazol-2-yl)-1H-pyrazole-4-carboxylic Acid] | 6.9 | 55
Cc1ccc2c(n1)c(Br)cc1nc(-n3cc(C(=O)O)cn3)[nH]c12 [Example 58, 1-(5-Bromo-7-methyl-1H-imidazo[4,5-f]quinolin-2-yl)-1H-pyrazole-4-carboxylic Acid] | 7.2 | 50
O=C(O)c1cnn(-c2nc3cc(OCc4ccccc4)c(Cl)cc3[nH]2)c1 [Example 59, 1-(5-Benzyloxy-6-chloro-1H-benzoimidazol-2-yl)-1H-pyrazole-4-carboxylic Acid] | 6.4 | 55.9
Cc1cccc(Sc2cc3nc(-n4cc(C(=O)O)cn4)[nH]c3cc2Cl)c1 [Example 60, 1-(6-Chloro-5-m-tolylsulfanyl-1H-benzoimidazol-2-yl)-1H-pyrazole-4-carboxylic Acid] | 6.9 | 42.3
O=C(O)c1cnn(-c2nc3cc(Sc4ccc(Cl)cc4)c(Cl)cc3[nH]2)c1 [Example 61, 1-[6-Chloro-5-(4-chloro-phenylsulfanyl)-1H-benzoimidazol-2-yl]-1H-pyrazole-4-carboxylic Acid] | 7.07 | 101
O=C(O)c1cnn(-c2nc3cc(Sc4ccccc4)c(Cl)cc3[nH]2)c1 [Example 62, 1-(6-Chloro-5-phenylsulfanyl-1H-benzoimidazol-2-yl)-1H-pyrazole-4-carboxylic Acid] | 6.75 | 45.8
O=C(O)c1cnn(-c2nc3cc(Sc4ccc(Cl)c(Cl)c4)c(Cl)cc3[nH]2)c1 [Example 63, 1-[6-Chloro-5-(3,4-dichloro-phenylsulfanyl)-1H-benzoimidazol-2-yl]-1H-pyrazole-4-carboxylic Acid] | 6.18 | 26.5
COc1cccc(Sc2cc3nc(-n4cc(C(=O)O)cn4)[nH]c3cc2Cl)c1 [Example 64, 1-[6-Chloro-5-(3-methoxy-phenylsulfanyl)-1H-benzoimidazol-2-yl]-1H-pyrazole-4-carboxylic Acid] | 6.9 | 38.3
COc1ccc(Sc2cc3nc(-n4cc(C(=O)O)cn4)[nH]c3cc2Cl)cc1 [Example 65, 1-[6-Chloro-5-(4-methoxy-phenylsulfanyl)-1H-benzoimidazol-2-yl]-1H-pyrazole-4-carboxylic Acid] | 6.6 | 56.3
O=C(O)c1cnn(-c2nc3cc(SCc4ccccc4)c(Cl)cc3[nH]2)c1 [Example 66, 1-(5-Benzylsulfanyl-6-chloro-1H-benzoimidazol-2-yl)-1H-pyrazole-4-carboxylic Acid] | 6.7 | 41.6
CC(C)(C)c1ccc(CSc2cc3nc(-n4cc(C(=O)O)cn4)[nH]c3cc2Cl)cc1 [Example 67, 1-[5-(4-tert-Butyl-benzylsulfanyl)-6-chloro-1H-benzoimidazol-2-yl]-1H-pyrazole-4-carboxylic Acid] | 7.2 | 11.7
O=C(O)c1cnn(-c2nc3cc(SCc4ccc(F)cc4)c(Cl)cc3[nH]2)c1 [Example 68, 1-[6-Chloro-5-(4-fluoro-benzylsulfanyl)-1H-benzoimidazol-2-yl]-1H-pyrazole-4-carboxylic Acid] | 6.8 | 58.4
O=C(O)c1cnn(-c2nc3cc(SCc4ccccc4Cl)c(Cl)cc3[nH]2)c1 [Example 69, 1-[6-Chloro-5-(2-chloro-benzylsulfanyl)-1H-benzoimidazol-2-yl]-1H-pyrazole-4-carboxylic Acid] | 6.8 | 85.3
O=C(O)c1cnn(-c2nc3cc(SCCc4ccccc4)c(Cl)cc3[nH]2)c1 [Example 70, 1-(6-Chloro-5-phenethylsulfanyl-1H-benzoimidazol-2-yl)-1H-pyrazole-4-carboxylic Acid] | 6.7 | 74.2
CSc1cc2[nH]c(-n3cc(C(=O)O)cn3)nc2cc1C(F)(F)F [Example 71, 1-(6-Methylsulfanyl-5-trifluoromethyl-1H-benzoimidazol-2-yl)-1H-pyrazole-4-carboxylic Acid] | 7.1 | 114
CSc1cc2[nH]c(-n3cc(C(=O)O)cn3)nc2cc1F [Example 74, 1-(5-Fluoro-6-methylsulfanyl-1H-benzoimidazol-2-yl)-1H-pyrazole-4-carboxylic Acid] | 6.9 | 77.8
CSc1cc2[nH]c(-n3cc(C(=O)O)cn3)nc2cc1Cl [Example 75, 1-(5-Chloro-6-methylsulfanyl-1H-benzoimidazol-2-yl)-1H-pyrazole-4-carboxylic Acid] | 7 | 106
CCSc1cc2[nH]c(-n3cc(C(=O)O)cn3)nc2cc1Cl [Example 76, 1-(5-Chloro-6-ethylsulfanyl-1H-benzoimidazol-2-yl)-1H-pyrazole-4-carboxylic Acid] | 6.9 | 212
CC(C)Sc1cc2[nH]c(-n3cc(C(=O)O)cn3)nc2cc1Cl [Example 77, 1-(5-Chloro-6-isopropylsulfanyl-1H-benzoimidazol-2-yl)-1H-pyrazole-4-carboxylic Acid] | 6.8 | 153
CCCSc1cc2[nH]c(-n3cc(C(=O)O)cn3)nc2cc1Cl [Example 78, 1-(5-Chloro-6-propylsulfanyl-1H-benzoimidazol-2-yl)-1H-pyrazole-4-carboxylic Acid] | 7 | 125
CSc1cc2[nH]c(-n3cc(C(=O)O)cn3)nc2cc1OC(F)(F)F [Example 79, 1-(6-Methylsulfanyl-5-trifluoromethoxy-1H-benzoimidazol-2-yl)-1H-pyrazole-4-carboxylic Acid] | 7.1 | 83.8
Cc1cccc(S(=O)(=O)c2cc3nc(-n4cc(C(=O)O)cn4)[nH]c3cc2Cl)c1 [Example 82, 1-[6-Chloro-5-(toluene-3-sulfonyl)-1H-benzoimidazol-2-yl]-1H-pyrazole-4-carboxylic Acid] | 7.4 | 85.3
O=C(O)c1cnn(-c2nc3cc(S(=O)(=O)c4ccccc4)c(Cl)cc3[nH]2)c1 [Example 83, 1-(5-Benzenesulfonyl-6-chloro-1H-benzoimidazol-2-yl)-1H-pyrazole-4-carboxylic Acid] | 7.57 | 96.7
